# Assay results as given in patent US9598716B2, “Destructible surfactants and uses thereof” (Waters Technologies Corporation, priority 2002, dated 2017).
# What was measured:
# trypsin = assay: Trypsin activity assay (rate of hydrolysis of BAEE to BA, UV); assay type: biochemical; settings: for Trypsin activity (%): 0.5 μg of trypsin in 50 mM ammonium bicarbonate, pH 7.9, no additive = 100
# Method: Trypsin activity measurements were carried out by introducing 1 μg/ml of trypsin to 0.25 mM N-α-benzoyl-L-arginine ethyl ester (BAEE, pH 7.9) at room temperature. Changes in trypsin activity were plotted by measuring the rate of hydrolysis of BAEE to a UV active product, BA, at A 252 nm.
# [1] = pH 7
# Text: After the chemical reaction proceeds, the surfactant of the present invention involved in enhancing the chemical reaction can be degraded, e.g., by contact with an acidic solution.
# [2] = target: T1, horse skeletal muscle myoglobin (Equus caballus, UniProt P68082); assay: Mass spectrometric detection of myoglobin treated with ALS or SDS (electrospray); settings: 5 μM myoglobin with 0.1% surfactant; ALS degraded in 10% acetic acid for 16 hours
# T1 construct: horse skeletal muscle myoglobin (Sigma. P/N M0630); purchased Sigma M0630; host or cells: horse skeletal muscle
# T1 sequence (P68082 whole entry): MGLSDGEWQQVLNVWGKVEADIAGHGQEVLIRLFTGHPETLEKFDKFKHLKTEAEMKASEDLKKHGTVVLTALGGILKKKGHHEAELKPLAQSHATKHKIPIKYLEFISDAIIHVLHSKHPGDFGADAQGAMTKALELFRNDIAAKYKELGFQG
# Method: Mass spectrometric detection was performed on myoglobin using a Platform LC (Micromass, Manchester, UK) with constant infusion. A stock solution of 50 μM horse skeletal muscle myoglobin (Sigma. P/N M0630) was prepared in 50/50 20 mM ammonium acetate, pH 5.1/acetonitrile (v/v). A stock solution of 1% SDS and 1% ALS were also prepared in both 50/50 ammonium acetate/acetonitrile, and 40/40/10 ammonium acetate/acetonitrile/glacial acetic acid. The surfactant stock solutions were both prepared fresh, and allowed to sit for at least 16 hours. To 100 μL of each of the surfactant stock solutions was added 100 μL of myoglobin stock and 800 μL 50/50 ammonium acetate/acetonitrile. Each solution was then drawn into a 1 mL syringe and placed in a syringe pump (Harvard Instruments). The solution was infused into the mass spectrometer at a flow rate of 20 μL/min. Mass spectrometer settings were as follows:
# Gas flow rate: 340 L/h; Source temperature: 100° C., Capillary voltage: 3.46 kV; Cone voltage: 25 V; Ion energy: 0.6; Scan rate: 3.0 sec/scan; Scan range: 250-1600 amu.
# Glu-C = target: T2, Glu-C (Staphylococcus aureus, UniProt P0C1U8); assay: Comparative digestion of myoglobin with Glu-C; assay type: biochemical; settings: with ALS, no observable digestion without ALS
# T2 construct: purchased Roche Diagnostics
# T2 sequence (P0C1U8 69-336): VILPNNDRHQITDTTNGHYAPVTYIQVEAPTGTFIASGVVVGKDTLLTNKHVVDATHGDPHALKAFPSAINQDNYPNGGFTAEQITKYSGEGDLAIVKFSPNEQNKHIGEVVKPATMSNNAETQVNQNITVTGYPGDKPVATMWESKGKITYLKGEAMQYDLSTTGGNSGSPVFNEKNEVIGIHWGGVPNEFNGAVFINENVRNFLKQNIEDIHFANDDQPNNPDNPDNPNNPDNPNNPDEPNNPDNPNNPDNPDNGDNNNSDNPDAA
# Method: (§1) Proteins (2-20 μM), indicated in Table 2, were solubilized in 50 mM NH4HCO3 or 0.1-0.25% (w/w) ALS before tryptic digestion. The trypsin to protein ratio used was 1-2%. The protein (˜17 μM) was solubilized with 8M urea or 0.25% ALS. After tryptic digestion, ALS was destroyed rapidly by addition of strong acid such as HCl or TFA. The by-products were removed by centrifugation prior to MS analysis. Protein digests were mass analyzed either by a MALDI.TOF mass spectrometer (M@LDI™ LR, Micromass UK Ltd) or separated by RP-HPLC (CapLC®, Waters Corporation) then interfaced to an orthogonal acceleration TOF mass spectrometer (LCT™, Micromass UK Ltd) via an electrospray ionization source.
# (§2) Myoglobin comparative digestion was performed as in Example 3 (in the presence and absence of ALS), with the exchange of the following proteases for trypsin: • A. Asp-N (FIG. 4A) • B. Lys-C (FIG. 4B) • C. Glu-C (FIG. 4C) Digestions were performed for about 50 minutes. The enzymes were purchased from Roche Diagnostics. Analysis is shown in FIGS. 4A-4C, as indicated above. In each case, when no ALS was in the digestion solution, no observable digestion took place. However, with ALS, within about 50 minutes, the entire protein was consumed.
# Lys-C = target: T3, Lys-C (Lysobacter enzymogenes, UniProt Q7M135); assay: Comparative digestion of myoglobin with Lys-C; assay type: biochemical; settings: with ALS, no observable digestion without ALS
# T3 construct: purchased Roche Diagnostics
# T3 sequence (Q7M135 whole entry): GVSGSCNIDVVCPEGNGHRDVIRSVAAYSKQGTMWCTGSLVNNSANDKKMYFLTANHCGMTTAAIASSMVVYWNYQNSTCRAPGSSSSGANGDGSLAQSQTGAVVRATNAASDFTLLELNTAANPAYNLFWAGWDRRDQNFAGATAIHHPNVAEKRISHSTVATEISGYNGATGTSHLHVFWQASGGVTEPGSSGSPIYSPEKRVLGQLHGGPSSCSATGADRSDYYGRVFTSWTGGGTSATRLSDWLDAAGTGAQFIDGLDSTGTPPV
# Method: as §1, §2
Molecule,Trypsin activity (%) (trypsin; additive at 50%),Trypsin activity (%) (trypsin; additive at 0.1%),Trypsin activity (%) (trypsin; additive at 0.5%),Myoglobin signal in electrospray mass spectrum [2],other results
CO [Methanol],31,,,,
CC#N [Acetonitrile],92,,,,
"sodium 4-[(2-methyl-2 undecyl-1,3-dioxolan-4-yl)methyl]-1-propanesulfonate [ALS]",,99,87,strong myoglobin signal,Stability of the surfactant [1]: stable; Effect on trypsin activity (in words) (trypsin; ALS added to the trypsin solution containing SDS): increase in trypsin activity; Time until the entire protein (myoglobin) was consumed (Glu-C): ≤ 50 min; Time until the entire protein (myoglobin) was consumed (Lys-C): ≤ 50 min
NC(N)=O [Urea],,,,,Trypsin activity (%) (trypsin; additive at 2M): 85%; Trypsin activity (%) (trypsin; additive at 4M): 71%
"CCCCCCCCCCCCOS(=O)(=O)[O-].[Na+] [SDS, sodium dodecylsulfate]",,20,1,no signals due to myoglobin are observed,Effect on trypsin activity (in words) (trypsin; each of the percentages examined): inhibits trypsin activity
